Experiments:
[1] = logP determination by HPLC on a reversed-phase column (C18), EEC Directive 79/831 Annex V.A8; format: physicochemical; conditions: LC-MS in the acidic range, pH 2,7, 0,1 % aqueous formic acid and acetonitrile, 55°C, read-out: logP (HCOOH)
Method: Die Messung der logP Werte erfolgt gemäß EEC Directive 79/831 Annex V.A8 durch HPLC (High Performance Liquid Chromatography) an einer Phasenumkehrsäule (C 18). Temperatur: 55°C.
Die Bestimmung mit der LC-MS im sauren Bereich erfolgt bei pH 2,7 mit 0,1 % wässriger Ameisensäure und Acetonitril (enthält 0,1% Ameisensäure) als Eluenten; linearer Gradient von 10% Acetonitril bis 95% Acetonitril. In der Tabelle logP (HCOOH) genannt.
Die Eichung erfolgt mit unverzweigten Alkan-2-onen (mit 3 bis 16 Kohlenstoffatomen), deren logP-Werte bekannt sind (Bestimmung der logP-Werte anhand der Retentionszeiten durch lineare Interpolation zwischen zwei aufeinander folgenden Alkanonen).

Phaedon cochleariae = Phaedon cochleariae spray test; format: in vivo; conditions: foliar, 168 h, after 7 days, sprayed Chinese cabbage leaf discs (Brassica pekinensis) with larvae, 100 % = all beetle larvae killed, read-out: Wirkung
Description: Lösungsmittel: • 78,0 Gewichtsteile Aceton • 1,5 Gewichtsteile Dimethylformamid Emulgator: Alkylarylpolyglykolether
(§1) Zur Herstellung einer zweckmäßigen Wirkstoffzubereitung löst man 1 Gewichtsteil Wirkstoff mit den angegebenen Gewichtsteilen Lösungsmittel und füllt mit Wasser, welches eine Emulgatorkonzentration von 1000 ppm enthält, bis zum Erreichen der gewünschten Konzentration auf. Zur Herstellung weiterer Testkonzentrationen wird mit emulgatorhaltigem Wasser verdünnt.
Chinakohlblattscheiben (Brassica pekinensis) werden mit einer Wirkstoffzubereitung der gewünschten Konzentration gespritzt und nach dem Abtrocknen mit Larven des Meerrettichblattkäfers (Phaedon cochleariae) besetzt.
Nach 7 Tagen wird die Wirkung in % bestimmt. Dabei bedeutet 100 %, dass alle Käferlarven abgetötet wurden; 0 % bedeutet, dass keine Käferlarven abgetötet wurden.

Myzus persicae = Myzus persicae spray test; format: in vivo; conditions: foliar, 120 h, after 5 days, sprayed Chinese cabbage leaf discs (Brassica pekinensis) infested with all stages, 100 % = all aphids killed, read-out: Wirkung
Description: Lösungsmittel: • 78 Gewichtsteile Aceton • 1,5 Gewichtsteile Dimethylformamid Emulgator: Alkylarylpolyglykolether
as §1
Chinakohlblattscheiben (Brassica pekinensis), die von allen Stadien der Grünen Pfirsichblattlaus (Myzus persicae) befallen sind, werden mit einer Wirkstoffzubereitung der gewünschten Konzentration gespritzt.
Nach 5 Tagen wird die Wirkung in % bestimmt. Dabei bedeutet 100 %, dass alle Blattläuse abgetötet wurden; 0 % bedeutet, dass keine Blattläuse abgetötet wurden.

Row | SMILES | chromatographic logP [1] | mortality at 500 g/ha (Phaedon cochleariae) [%] | mortality at 500 g/ha (Myzus persicae) [%]
1 | Cn1c(-c2c(Cl)c3ccc(Cl)cc3n2C)nc2cc(C(F)(F)F)ncc21 [Bsp. V-1, 2-(3,6-Dichlor-1-methyl-indol-2-yl)-3-methyl-6-(trifluormethyl)imidazo[4,5-c]pyridin] | 4.23 | – | –
2 | CCSc1c(-c2nc3cc(C(F)(F)F)ncc3n2C)n(C)c2cc(Cl)ccc12 [Bsp. I-2, 2-(6-Chlor-3-ethylsulfanyl-1-methyl-indol-2-yl)-3-methyl-6-(trifluormethyl)imidazo[4,5-c]pyridin] | 4.51 | – | –
3 | CCS(=O)(=O)c1c(-c2nc3cc(C(F)(F)F)ncc3n2C)n(C)c2cc(Cl)ccc12 [Bsp. I-1, 2-(6-Chlor-3-ethylsulfonyl-1-methyl-indol-2-yl)-3-methyl-6-(trifluormethyl)imidazo[4,5-c]pyridin] | 3.11 | 100 | 90

Reference: patent publication EP3241830A1, “CONDENSED BICYCLIC HETEROCYCLIC DERIVATIVES AS PESTICIDES” (Bayer CropScience Aktiengesellschaft, priority 2016, dated 2017)
